The nature of experiment [1]: Cytotoxicity against human 6T-CEM cells. The format is functional, cell-based.
The subject of a further experiment is HL-60. The experiment in a line: Cytotoxicity against human HL-60 cells assessed as inhibition of cell growth. The format is functional, cell-based.
Experiment [2] concerns RAW264.7. Briefly: Anti-inflammatory activity in LPS induced mouse RAW264.7 cells assessed as inhibition of NO production measured after 24 hrs by CCK-8 method. Format: functional, cell-based. As to conditions: RAW264.7, 24 h. On the technique in general: Tetrazolium assays rely on reduction of a dye to a coloured formazan, in cell work by metabolically active cells.
Experiment [3] relates to RAW264.7. Briefly: Anti-inflammatory activity in LPS induced mouse RAW264.7 cells assessed as inhibition of NO production. The format is functional, cell-based.
In a further experiment the test system is U2OS. Briefly: Synergistic cytotoxicity in human U2OS cells assessed as combination index in presence of doxorubicin. The format is functional.
In a further experiment the test system is PC-12. Briefly: Neuroprotective activity against glutamate-induced neurotoxicity in rat PC-12 cells. Format: functional, cell-based.
In the next experiment the test system is Plasmodium falciparum. Briefly: Antiplasmodial activity against Plasmodium falciparum. The format is functional, organism-based.

In brackets after ≈: the same amount, converted by molar mass.

For orientation: IC50 means the concentration needed to halve the response being measured. By EC50 is commonly meant the concentration giving half of the maximal effect.

In turn, `C=C1C(=O)O[C@H]2C[C@H](C)C3=C(C[C@H]12)[C@@]1(C)OC(=O)[C@@H](c2ccc(C)c([C@H](C)CCCOC(C)=O)c2)C[C@H]1[C@H]3OC(C)=O` displayed an IC50 in experiment [1] of 4400 nM.
With `C[C@H](O)CC[C@H]1[C@@H]2C[C@H]3[C@@H](C[C@]12C)OC(=O)C31CC2(CO1)C(=O)O[C@@H]1C[C@]3(C)[C@@H](CC[C@@H](C)O)[C@@H]3C[C@@H]12` (some centres not stated), the IC50 with HL-60 was determined as 8700 nM.
As to `C=C1C(=O)O[C@H]2[C@@H]1CCC1=C(C)[C@H]3CC1(C[C@@]31C(=O)O[C@H]3C[C@H](C)[C@@]45C[C@@]6(C(=O)O[C@@H]7C[C@H](C)C(CCC(C)=O)=CC[C@@H]76)[C@@H](C(C)=C4C[C@@H]31)C5OC(C)=O)[C@H]2C` (some centres not stated), the IC50 with RAW264.7 [2] turned out to be 1900 nM.
In the case of `C=C1C(=O)O[C@@H]2[C@@H]3[C@@H](C[C@@]4(O)[C@]3(O)CC[C@]43C(=O)C[C@H]4C(=C)CC[C@H]5C(=C)C(=O)O[C@@H]5[C@H]43)C(=C)CC[C@@H]12`, the IC50 in the experiment on RAW264.7 [3] was 2.41 µg/mL (≈ 4.76 µM).
For the compound `COC(=O)/C(C)=C1\C(=O)[C@H](O)[C@@]2(C)[C@@H]3C[C@@H]3[C@@]34CCC5=C6C3=C(C(=O)[C@H](O)[C@@]6(C)[C@@H]3C[C@H]53)[C@](C)(C(C)=O)[C@@H]1[C@@]24O`, the CI in the experiment on U2OS was determined as 1.12.
On to `C=C1CC[C@H]2C(=C)CC[C@@H]3[C@H](OC(=O)[C@]3(CC(C)=O)C[C@@H]3CC[C@H]4C(=C)CC[C@H]5C(=C)C(=O)O[C@@H]5[C@@H]34)[C@@H]12`, for which, in the experiment on PC-12, a half-maximal effect (EC50) was put at 2110 nM.
`C/C=C(\C)C(=O)O[C@@H]1CC([C@H](O)[C@]2(C)C=C3OC(=O)C4=C3[C@H]2[C@H]2OC(=O)[C@H](C)[C@@H]2[C@H](OC(=O)/C(C)=C/C)C4)=C2C(=O)C=C(C)[C@@H]2[C@H]2OC(=O)[C@H](C)[C@@H]21`: in the experiment on Plasmodium falciparum, the IC50 stood at 2000 nM.

The values are drawn from ChEMBL document CHEMBL5244250, “Natural sesquiterpenoid oligomers: A chemical perspective” (Eur J Med Chem, 2020).
